Like-named read-outs stand apart in the source and are kept apart here. Marks after values point to notes of the source that are not given here.
How the values were obtained:
[1] = system: Malassezia globosa; test: Antimicrobial MIC test; assay type: cell-based; conditions: 30° C. and 24 hours
Excerpt: (§1) Several studies have been performed to evaluate possible antimicrobial activities of norketotifen. Shown here are the results from a standard microbiological test, where the results are expressed as MIC (Minimal Inhibitory Concentration) of the test article against selected exemplary dermal bacteria (such as for example Staphylococcus aureus) and dermal fungi (such as for example Malassezia sp) that are commonly found in human with dermal diseases. […] All the MIC-tests shown in Table 10 were performed in duplicates, using 10 concentrations of the test articles. […] The test culture tubes/plates were incubated in temperatures and durations appropriate for each microorganism (S. aureus: 36° C. and 24 hours; M. globosa: 30° C. and 24 hours).

[2] = system: Staphylococcus aureus; test: Antimicrobial MIC test; assay type: cell-based; conditions: MRSA or non-resistant S. aureus; 36° C. and 24 hours
Excerpt: as §1

[3] = system: mice; conditions: for Sedated animals: mice, 60 min before physostigmine
Experimental: Mice administered a sedating drug prior to the physostigmine injection are protected from the stress and survive. In the present study, test compounds were given orally 60 minutes prior to physostigmine injection. The number of surviving (sedated) mice was counted 30 minutes after injection of the physostigmine dose.

[4] = Acute toxicity in rats, Up-and-Down Procedure; conditions: both sexes, Sprague-Dawley, in vivo, rat, hydrogen fumarate salts, read-out: Acute toxicity (estimated LD50)
Experimental: Acute toxicological studies were performed in rats (Sprague-Dawley; M and F; 200-250 grams). The animal-sparing Up-and-Down Procedure, recommended by FDA and OECD, was used. Both oral and intravenous toxicity tests were performed.
Both compounds were administered as hydrogen fumarate salts.

[5] = system: histamine-induced pruritus; test: Histamine-induced pruritus in mice, oral administration; assay type: in vivo
Experimental: Antipruritic effects were tested in vivo in CD-1 female mice aged 10-12 weeks. The hair was clipped over the rostral part of the back at the interscapular level of the mice one day before dosing. Before testing, the mice were placed in individual clear plastic cages for at least one hour for acclimation. After fasting for 1.5 hours, the animals were dosed orally with the test article, dissolved in a vehicle consisting of 1% methylcellulose/water, 10 mL/kg body-weight. Sixty minutes after oral dosing, an intradermal injection of histamine (300 nmol in 20 μl phosphate buffered saline (PBS), pH 7.4) was administered into the clipped area. Immediately after the histamine injection, the bouts of scratches were counted for 40 minutes. Scratching induced by the histamine vehicle PBS served as control.
Norketotifen was tested in escalating doses. In addition, a supramaximal dose of 100 mg/kg of norketotifen was tested. The reference compounds JNJ7777120, desloratadine and oclacitinib were dosed orally at 20 mg/kg. The vehicle for the reference compound JNJ7777120 was 20% hydroxypropyl-β-cyclodextrin in water. […]. The numbers of pruritic bouts for Norketotifen, DES and OCLA are expressed in percent of the same Vehicle (100% corresponds to 92 pruritic bouts). […] Scratches induced by the histamine-free vehicle PBS (not shown in Table 5) served as control (6±3 bouts of scratching; N=8)
This test used histamine to induce pruritus. […] The histamine inhibitors are “inverse agonists” at both receptor types.

[6] = system: histamine wheal response; test: Histamine-induced wheal (Evans blue) in rats, oral pretreatment; assay type: in vivo; conditions: rat; for Saline wheal area: histamine vehicle injection
Experimental: Male rats (150-200 g) were fasted overnight and twelve hours after dorsal depilation, the animals were orally pretreated with the test compound(s). Four dorsal test areas were marked with permanent ink, carefully avoiding the area closest to the spine. […] Two intradermal injections of the vehicle for the histamine solution were also performed. […] Twenty minutes were allowed for the wheal response to fully develop, whereupon the animals were euthanized and the dorsal skin with the intradermal wheals were deflected. The blue spotted areas were measured in square millimeters and the duplicate wheal areas were averaged. […] The inhibition was calculated in percent difference from said baseline values.

[7] = system: human leukocytes (buffy coat); test: Inhibition of A23187-stimulated histamine release from human leukocytes; assay type: cell-based
Experimental: In these studies, histamine was the marker compound for inflammatory mediators that are released from mast cells and other pro-inflammatory cells in patients with atopic inflammatory diseases. The inhibition of stimulated histamine release from human leukocytes (buffy coat) by test articles was studied. Leukocytes were obtained from healthy volunteers and histamine release was induced by incubation (20 min/37° C.) with the calcium ionophore A23187 (5 μM) in the presence or absence of a test article. Histamine was analyzed by enzyme-immune assays, using commercially available kits and a microplate reader (MRX, Dynatech). The test articles were evaluated, in duplicate, at five concentrations.

[8] = system: croton oil inflammatory response; test: Modified croton oil ear inflammation in mice, topical cream; assay type: in vivo; conditions: cream containing 1.0 percent (w/w)
Experimental: In order to investigate the effects of topical administration of the test compounds in dermal inflammation, a modified croton oil model was used. […] The cream was then removed and a solution of 1% croton oil in 20 μl acetone was applied to both ears. […] Cream was wiped from the ears and ears were removed and weighed. […] All results represent mean ear weights (±S.E.M.) from 8 ears.

[9] = system: histamine-induced pruritus; test: Histamine-induced pruritus in mice, topical cream; assay type: in vivo; conditions: single topical application of 1.0 percent cream
Experimental: Antipruritic effects were tested in vivo in CD-1 female mice aged 10-12 weeks, according to methods known in the art. The hair was clipped over the rostral part of the back at the interscapular level of the mice one day before dosing. Before testing, the mice were placed in individual clear plastic cages for at least one hour for acclimation. […] Lanolin was weighed and liquified by submerging the vessel containing lanolin in hot water. While the lanolin was liquid, it was rapidly nixed (by vortexing) with the 2.5% norketotifen solution in ethanol, resulting in a 1.0 percent solution. […] A cream containing 60% lanolin/40% ethanol served as control.

[10] = system: Candida albicans; test: Antimicrobial test; assay type: cell-based
Excerpt: as §1

[11] = system: Malassezia pachydermatis; test: Antimicrobial test; assay type: cell-based
Excerpt: as §1

[12] = system: Helicobacter pylori; test: Antimicrobial test; assay type: cell-based
[13] = Solubility in non-aqueous topical formulation solvents; assay type: physicochemical
Experimental: The hydrophobic ointment was prepared by dissolving norketotifen in propylene glycol. […] Next, glyceryl stearate, cetyl alcohol, and white petrolatum were added to a suitable container and heated to 65-70° C. This heating step melts the surfactants and the petrolatum. Next, norketotifen solution was slowly added and the composition mixed until the solvent was dispersed. Finally, the composition was cooled with mixing to allow the ointment to thicken. If needed, acidity can be adjusted by adding an acid solution or a base solution to obtain the preferred acidity. If needed, viscosity can be adjusted with a viscosity-modifying agent to obtain the preferred viscosity.

[14] = Formation of norketotifen by hepatic demethylation of ketotifen; conditions: human patients, after an oral dose of one milligram ketotifen; calculated
[15] = oral 20 mg/kg, vehicle 1% methylcellulose/water

SMILES: O=C(O)/C=C/C(=O)O.O=C1Cc2ccccc2C(=C2CCNCC2)c2ccsc21 [S-norketotifen HF]
- M. globosa MIC [1]: 250 µg/mL
- S. aureus MIC [2]: 500 µg/mL

SMILES: CN(C)CCOC(c1ccccc1)c1ccccc1 [DIPHENHYDRAMINE]
- Sedated animals ([3]; oral 50 mg/kg): 5/10
- Sedated animals ([3]; oral 100 mg/kg): 8/10

SMILES: COc1ccc(CN(CCN(C)C)c2ccccn2)cc1 [PYRILAMINE]
- Sedated animals ([3]; oral 100 mg/kg): 8/10

SMILES: OCCOCCN1CCN(C(c2ccccc2)c2ccc(Cl)cc2)CC1 (stereo not drawn) [HYDROXYZINE]
- Sedated animals ([3]; oral 100 mg/kg): 9/10

SMILES: O=C1Cc2ccccc2C(=C2CCNCC2)c2ccsc21 [S-NORKETOTIFEN]
- Sedated animals ([3]; oral 100 mg/kg, 100 mg/kg): 0/10
- Sedated animals ([3]; oral 150 mg/kg, 150 mg/kg): 0/10

SMILES: CN1CCC(=C2c3ccccc3CC(=O)c3sccc32)CC1 [Ketotifen, 4-(1-methyl-4-piperidyline)-4H-benzo(4,5)-cyclohepta-(1,2-b) thiophene-10-one]
- Sedated animals ([3]; oral 25 mg/kg): 5/10
- Sedated animals ([3]; oral 50 mg/kg): 8/10
- Sedated animals ([3]; oral 100 mg/kg): 10/10
- LD50 ([4]; intravenous): 5 to 10 mg/kg
- LD50 ([4]; oral): < 300 mg/kg

SMILES: CC(C)(C)c1ccc(C(O)CCCN2CCC(C(O)(c3ccccc3)c3ccccc3)CC2)cc1 (stereo not drawn) [TERFENADINE]
- Sedated animals ([3]; oral 150 mg/kg): 0/10

SMILES: CNS(=O)(=O)C[C@H]1CC[C@H](N(C)c2ncnc3[nH]ccc23)CC1 [Oclacitinib, reference compound]
- Bouts as % of Vehicle Controls ([5]; oral 20 mg/kg, 100% = 92 bouts): 55* %
- Bouts/40 min Mean ± SEM [5, 15]: 50.9 ± 18.7

SMILES: O=C1Cc2ccccc2C(=C2CCNCC2)c2ccsc21 [R-NORKETOTIFEN]
- Sedated animals ([3]; oral 100 mg/kg, 100 mg/kg): 3/10
- Sedated animals ([3]; oral 150 mg/kg, 150 mg/kg): 3/10

SMILES: CN1CCN(C(=O)c2cc3cc(Cl)ccc3[nH]2)CC1 [J&J7777120, reference compound]
- Bouts/40 min Mean ± SEM ([5]; oral 20 mg/kg, vehicle 20% hydroxypropyl-β-cyclodextrin): 63.6 ± 11.7
- Bouts as % of Vehicle Controls ([5]; oral 20 mg/kg, versus vehicle for JNJ7777120 (112 bouts)): 57* %

SMILES: CCOC(=O)N1CCC(=C2c3ccc(Cl)cc3CCc3cccnc32)CC1 [LORATADINE]
- Sedated animals ([3]; oral 150 mg/kg): 1/10

SMILES: Clc1ccc2c(c1)CCc1cccnc1C2=C1CCNCC1 [DESLORATADINE, reference compound]
- Bouts as % of Vehicle Controls ([5]; oral 20 mg/kg, 100% = 92 bouts): 122%
- Bouts/40 min Mean ± SEM [5, 15]: 112.0 ± 14.5
- Sedated animals ([3]; oral 150 mg/kg): 0/10

SMILES: O=C(O)/C=C/C(=O)O.O=C1Cc2ccccc2C(=C2CCNCC2)c2ccsc21 [R-norketotifen HF]
- M. globosa MIC [1]: 500 µg/mL
- S. aureus MIC [2]: 1000 µg/mL

SMILES: O=C(O)/C=C/C(=O)O.O=C1Cc2ccccc2C(=C2CCNCC2)c2ccsc21 [RS-norketotifen HF]
- M. globosa MIC [1]: 250 µg/mL
- S. aureus MIC [2]: 500 µg/mL

SMILES: O=C1Cc2ccccc2C(=C2CCNCC2)c2ccsc21 (racemic) [Norketotifen]
- Saline wheal area ([6]; oral 1.0 mg/kg): 22 ± 1 mm^2
- Histamine wheal area ([6]; oral 10 mg/kg, 60 min before intradermal histamine): 39 ± 2 mm^2
- Saline wheal area ([6]; oral 10 mg/kg): 22 ± 1 mm^2
- Saline wheal area ([6]; oral 50 mg/kg): 12 ± 1 mm^2
- Potency as inhibitor of histamine release relative to ketotifen [7]: approximately 10 times
- Bouts/40 min Mean ± SEM ([5]; oral 1 mg/kg): 84.7 ± 11.6
- Bouts as % of Vehicle Controls ([5]; oral 1 mg/kg, 100% = 92 bouts): 92%
- Bouts/40 min Mean ± SEM ([5]; oral 3 mg/kg): 34.1 ± 9.6
- Bouts as % of Vehicle Controls ([5]; oral 3 mg/kg, 100% = 92 bouts): 37** %
- Bouts/40 min Mean ± SEM ([5]; oral 10 mg/kg): 17.8 ± 3.1
- Bouts as % of Vehicle Controls ([5]; oral 10 mg/kg, 100% = 92 bouts): 19** %
- Bouts/40 min Mean ± SEM ([5]; oral 100 mg/kg): 8.3 ± 2.8
- Bouts as % of Vehicle Controls ([5]; oral 100 mg/kg, 100% = 92 bouts): 9*** %
- Inhibition of histamine-induced pruritus ([5]; oral supramaximal dose 100 mg/kg): complete inhibition
- Sedated animals ([3]; oral 83 mg/kg): 3/10
- Sedated animals ([3]; oral 100 mg/kg): 3/10
- Sedated animals ([3]; oral 150 mg/kg): 3/10
- Sedated animals ([3]; oral 180 mg/kg): 6/10
- Sedative activity in mice ([3]; mouse, in vivo): expressed sedative activity
- LD50 ([4]; intravenous): 10 to 15 mg/kg
- LD50 ([4]; oral): 1500 to 2000 mg/kg
- Inhibition of croton oil inflammation [8]: completely inhibited
- Reduction of histamine-induced pruritus versus Vehicle Control [9]: 58%
- Antimicrobial activity [10]: potent antimicrobial activities
- Antimicrobial activity [11]: potent antimicrobial activities
- Antimicrobial activity [12]: potent antimicrobial activities
- Solubility ([13]; formulation G1009, mixture of two polyethylene glycols): about 1.0%
- Solubility ([13]; in propylene glycol): about 1.0%
- Norketotifen formed in the liver [14]: up to 0.5 mg

Reference: patent publication US9808419B2, “Medicinal treatment of dermal infectious disorders with norketotifen” (priority 2012, dated 2017)
